As a reminder, the solubility is the dissolved amount per volume that the medium holds.

Data on 1 compound can be found in US20250255850A1, “PHARMACEUTICAL COMPOSITIONS FOR TREATING NEUROLOGICAL CONDITIONS” (YISSUM RESEARCH DEVELOPMENT COMPANY OF THE HEBREW …, priority 2021, published 2025).

The subject of data set [1] is Mutant mice (CNTNAP2 and SHANK3 mouse models). The experiment in a line: Novel object recognition test (NOR), 7-NI-treated mutant mice (Example 3). It counts as in vivo. Conditions: 7-NI IP 80 mg/kg/day for 7 days; mutant mice vs vehicle. The procedure: Behavioral testing started after 2 hours of treatment.
Novel object recognition (see, FIG. 4A): The novel object test for object recognition and memory takes place in a white open field arena (45×45 cm). The test involves a set of two unique novel objects, each about the size of a mouse, constructed from two different materials and non-uniform in shape. The test consisted of one 10-minute habituation session, a 5-minute familiarization session and a 5-minute recognition test, each video tracked (Noldus Ethovision). During the habituation, animals were allowed to freely explore an empty open field. At the end of the session, they were shifted from the open field to a place in a temporary clean holding cage for about 2 minutes. Two identical objects were placed on the median line at 10 cm from each wall and the animal was returned to the open field and allowed to explore the objects for 5 minutes before being returned to its home cage. Next day, one familiar object and one novel object were placed in the open field to the location where the identical objects were placed during the familiarization session and the mouse was allowed to explore them for a 5-minute recognition test. […] Familiarization and recognition sessions were scored for total time spent investigating each object, the number of object interactions and the latency of the first object interaction. […]

The next data set has as its system SHANK3 mutant mice. The experiment in a line: Open field test, SHANK3 mutant mice. It counts as in vivo, mouse. Conditions: 7-NI i.p. 20, 50 and 80 mg/kg. The procedure:
Open field test: Mice were tested in an open field (45×45 cm) virtually divided into central and peripheral regions. Animal activity was recorded by video tracking (Noldus Ethovision). Each mouse was allowed to explore the apparatus for 5 minutes. The distance traveled, the number of rears and revolutions, the number of grooming bouts and cumulative grooming time, the number of head shaking or twitches, the number of entries in the center, and the time spent in the central and peripheral regions were recorded. Measures were recorded in 5-minute intervals.
A dose dependent study was conducted to determine the optimal dose that may produce the greatest effect on mice behavior. The SHANK3 mutant mice (n=5 for each group) were treated with the 7-NI (i.p) at doses of 0, 20, 50, and 80 mg/kg. This was followed by a set of behavioral tests to assess the proper dose of 7-NI that can reverse the autistic phenotypes observed in this model.
Initially, an open field test was performed to examine the general motor activity levels in mice that is measured by the distance travelled and velocity.
A 100 μL injection of the poly(sebacic acid-ricinoleic acid) (PSARA) gel formulation with 7NI was used to evaluate its effect in reversing ASD-like behaviors in SHANK3 mice. The motor activity, social interaction, anxiety and interest behaviors were examined using the behavior analyses as described herein.

For another data set, the target named is T1, nNOS (Homo sapiens, UniProt P29475).
T1 construct: SH-SY5Y cells grown in six-well culture plates were lysed in 50 mM Tris-HCl buffer (pH 7.4); endogenous in cells; host or cells: SH-SY5Y (human neuroblastoma, ATCC)
T1 sequence (P29475 whole entry): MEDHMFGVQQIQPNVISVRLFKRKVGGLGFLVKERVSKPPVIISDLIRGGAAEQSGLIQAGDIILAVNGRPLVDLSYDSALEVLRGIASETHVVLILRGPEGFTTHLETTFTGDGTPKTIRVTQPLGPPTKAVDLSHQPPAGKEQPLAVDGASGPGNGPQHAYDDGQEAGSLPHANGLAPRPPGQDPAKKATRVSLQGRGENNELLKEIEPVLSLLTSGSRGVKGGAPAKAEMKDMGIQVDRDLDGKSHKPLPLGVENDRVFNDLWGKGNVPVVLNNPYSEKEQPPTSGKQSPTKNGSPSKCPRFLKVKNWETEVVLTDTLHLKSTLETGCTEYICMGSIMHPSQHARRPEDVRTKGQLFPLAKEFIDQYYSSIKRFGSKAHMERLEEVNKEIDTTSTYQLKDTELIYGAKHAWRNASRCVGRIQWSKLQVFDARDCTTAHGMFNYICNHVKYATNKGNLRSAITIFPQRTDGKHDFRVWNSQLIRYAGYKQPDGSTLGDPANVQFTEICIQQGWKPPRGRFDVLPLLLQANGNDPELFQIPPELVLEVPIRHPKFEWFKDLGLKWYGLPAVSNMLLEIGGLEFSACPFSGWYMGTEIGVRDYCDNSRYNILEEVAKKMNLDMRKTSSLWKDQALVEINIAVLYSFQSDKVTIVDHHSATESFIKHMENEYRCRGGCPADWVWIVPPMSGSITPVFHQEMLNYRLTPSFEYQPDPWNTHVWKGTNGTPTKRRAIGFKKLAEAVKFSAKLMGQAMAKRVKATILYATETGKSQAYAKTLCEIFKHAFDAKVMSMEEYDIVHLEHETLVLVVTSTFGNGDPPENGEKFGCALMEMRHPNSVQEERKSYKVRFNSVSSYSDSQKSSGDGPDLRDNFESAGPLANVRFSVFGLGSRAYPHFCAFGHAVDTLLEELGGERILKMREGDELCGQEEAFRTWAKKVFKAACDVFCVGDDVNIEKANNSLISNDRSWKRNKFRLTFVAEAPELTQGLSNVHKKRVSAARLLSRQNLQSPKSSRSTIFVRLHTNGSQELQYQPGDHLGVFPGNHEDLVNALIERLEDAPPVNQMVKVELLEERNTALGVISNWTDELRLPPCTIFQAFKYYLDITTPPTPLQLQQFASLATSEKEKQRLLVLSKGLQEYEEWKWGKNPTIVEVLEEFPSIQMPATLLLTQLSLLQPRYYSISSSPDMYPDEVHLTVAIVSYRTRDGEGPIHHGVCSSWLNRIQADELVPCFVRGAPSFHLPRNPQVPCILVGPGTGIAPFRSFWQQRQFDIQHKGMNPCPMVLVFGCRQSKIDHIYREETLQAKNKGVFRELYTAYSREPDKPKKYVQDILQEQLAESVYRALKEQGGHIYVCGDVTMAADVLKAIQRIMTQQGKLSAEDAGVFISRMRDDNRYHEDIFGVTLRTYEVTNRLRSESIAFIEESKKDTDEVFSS
The experiment in a line: NADPH-diaphorase activity assay in SH-SY5Y cell lysates. It counts as cell-based. As to conditions: 7-NI 100 μM 24 hours or 20 nM nNOS siRNA 24 hours. The procedure: Human NB SH-SY5Y cells were obtained from the American Type Culture Collection (ATCC) and maintained in Dulbecco's modified Eagle's medium (DMEM) and Ham's F-12 (1:1) supplemented with 10% fetal bovine serum, 2 mM L-glutamine, and 100 U/ml penicillin-G/100 […] streptomycin in a humidified atmosphere (37° C., 5% CO2). Cells were plated onto 25 cm^2 and 75 cm^2 plates at a density of 7.0×10^5 and 2.1×10^6 cells/cm^2 respectively for Western blotting (WB) and 1×10^5 for immunofluorescence. The SH-SY5Y cells were treated with 100 μM 7-nitroindazole (7-NI) for 24 hours (Fujibayashi et al., 2015). This concentration was confirmed in a dose-response experiment (FIG. 14A) using an MTT viability assay. […]
The NADPH-diaphorase activity assay was used to determine the NOS activity based on the NADPH-dependent reduction of nitro-blue tetrazolium salt (NBT) to visible formazan (Amaroli and Chessa, 2012; Seckler et al., 2020). […] After a 15 min incubation period at 37° C., the production of formazan was measured spectrophotometrically at 585 nm. The data were expressed as absorbance units and normalized for the protein content of each sample. Protein concentration was measured by the bicinchoninic acid (BCA) protein assay using BSA as a standard (Ortiz-Ortiz et al., 2009). Released NO was measured using a Griess Assay Kit (Beyotime, Shanghai, China) according to the manufacturer's instructions.

For data set [2] the following is noted: cited from earlier work.
The nature of another data set: physchem. Conditions: organic solvent or mixture.

Values after ≈ are worked out from the molar mass of the structure shown.

With `O=[N+]([O-])c1cccc2cn[nH]c12` [7-NI, 7-nitroindazole], the “preference for the novel object (NOR test)” value in data set [1] was “exhibited a significant preference for the novel object over the familiar object”. In addition, in the data set on SHANK3 mutant mice, the “motor activity (distance travelled and velocity, open field)” value is on record as “no significant difference in the motor activity”. For the same compound, at nNOS, the NADPH diaphorase activity entry is “significantly inhibited”. The “solubility in aqueous medium” value in data set [2] is reported as “very low solubility”. For the same compound, in the data set “physchem”, the solubility was 32 mg/mL (≈ 196 mM).
